In the CheMixHub drug solubility set:

Assay: xn = mol fraction of the nth substance listed, in the solute-free solvent

CC(=O)Oc1cccc2c1C(=O)c1c(OC(C)=O)cc(C(=O)O)cc1C2=O + CC#N + CCO
solubility (g/100 g solution)
Conditions | 273.15 K | 278.15 K | 283.15 K | 288.15 K | 293.15 K | 298.15 K | 303.15 K | 308.15 K | 313.15 K
x2 = 0.1109 | 0.00681 | 0.00922 | 0.0124 | 0.0163 | 0.0211 | 0.0275 | 0.0344 | 0.0422 | 0.0532
x2 = 0.2191 | 0.0086 | 0.0114 | 0.0156 | 0.0201 | 0.0251 | 0.0316 | 0.0396 | 0.0497 | 0.0623
x2 = 0.3248 | 0.0151 | 0.02 | 0.0259 | 0.032 | 0.0393 | 0.0474 | 0.0557 | 0.0657 | 0.0756
x2 = 0.428 | 0.0245 | 0.0312 | 0.039 | 0.0468 | 0.0553 | 0.0655 | 0.0782 | 0.0921 | 0.108
x2 = 0.5288 | 0.0313 | 0.0399 | 0.0509 | 0.0631 | 0.0754 | 0.0896 | 0.105 | 0.121 | 0.139
x2 = 0.6273 | 0.0353 | 0.0455 | 0.0574 | 0.0703 | 0.0834 | 0.0991 | 0.114 | 0.13 | 0.148
x2 = 0.7236 | 0.0286 | 0.0372 | 0.048 | 0.0598 | 0.0714 | 0.0842 | 0.098 | 0.113 | 0.129
x2 = 0.8178 | 0.0226 | 0.029 | 0.0374 | 0.0457 | 0.0538 | 0.0633 | 0.0742 | 0.0857 | 0.101
x2 = 0.9099 | 0.0216 | 0.0259 | 0.0322 | 0.0392 | 0.0467 | 0.0549 | 0.0647 | 0.0747 | 0.0869

CC(=O)Oc1cccc2c1C(=O)c1c(OC(C)=O)cc(C(=O)O)cc1C2=O + CC(=O)N(C)C + O
solubility (g/100 g solution)
Conditions | x2 = 0.02247 | x2 = 0.04917 | x2 = 0.08143 | x2 = 0.1212 | x2 = 0.1714 | x2 = 0.2368 | x2 = 0.3255 | x2 = 0.4528 | x2 = 0.6506
278.15 K | 0.00282 | 0.0125 | 0.0358 | 0.0823 | 0.255 | 0.368 | 0.38 | 0.452 | 0.496
283.15 K | 0.00402 | 0.0162 | 0.0459 | 0.107 | 0.313 | 0.441 | 0.521 | 0.622 | 0.691
288.15 K | 0.00537 | 0.0204 | 0.0587 | 0.137 | 0.374 | 0.525 | 0.683 | 0.821 | 0.927
293.15 K | 0.00727 | 0.0256 | 0.0748 | 0.173 | 0.444 | 0.633 | 0.885 | 1.07 | 1.18
298.15 K | 0.00929 | 0.0324 | 0.0937 | 0.219 | 0.532 | 0.779 | 1.12 | 1.35 | 1.47
303.15 K | 0.0112 | 0.0405 | 0.119 | 0.274 | 0.633 | 0.95 | 1.38 | 1.69 | 1.81
308.15 K | 0.0139 | 0.0502 | 0.149 | 0.343 | 0.746 | 1.16 | 1.7 | 2.1 | 2.29
313.15 K | 0.0168 | 0.0643 | 0.184 | 0.429 | 0.862 | 1.44 | 2.04 | 2.54 | 2.83

CN1CCC(N(Cc2cccs2)c2ccccc2)CC1 + CC(C)O + O
solubility (g/100 g solution)
Conditions | 278.15 K | 283.15 K | 288.15 K | 293.15 K | 298.15 K | 303.15 K | 308.15 K | 313.15 K | 318.15 K | 323.15 K
x2 = 0.03225 | 0.141 | 0.15 | 0.16 | 0.173 | 0.19 | 0.208 | 0.229 | 0.249 | 0.274 | 0.301
x2 = 0.06974 | 0.326 | 0.345 | 0.365 | 0.394 | 0.428 | 0.466 | 0.508 | 0.551 | 0.601 | 0.656
x2 = 0.1139 | 0.573 | 0.606 | 0.64 | 0.689 | 0.746 | 0.809 | 0.879 | 0.952 | 1.03 | 1.13
x2 = 0.1666 | 0.834 | 0.881 | 0.933 | 1.01 | 1.09 | 1.18 | 1.28 | 1.39 | 1.51 | 1.64
x2 = 0.2307 | 1.04 | 1.1 | 1.18 | 1.28 | 1.4 | 1.51 | 1.64 | 1.78 | 1.95 | 2.12
x2 = 0.3103 | 1.24 | 1.33 | 1.43 | 1.54 | 1.67 | 1.81 | 1.96 | 2.11 | 2.3 | 2.52
x2 = 0.4117 | 1.4 | 1.51 | 1.62 | 1.75 | 1.93 | 2.12 | 2.32 | 2.54 | 2.77 | 3.04
x2 = 0.5454 | 1.55 | 1.68 | 1.82 | 1.99 | 2.15 | 2.34 | 2.58 | 2.83 | 3.11 | 3.42
x2 = 0.7297 | 1.61 | 1.77 | 1.95 | 2.14 | 2.35 | 2.6 | 2.85 | 3.13 | 3.41 | 3.74

Cc1ccc2cc(Br)ccc2n1 + CC(C)O + O
solubility (g/100 g solution)
Conditions | 278.15 K | 283.15 K | 288.15 K | 293.15 K | 298.15 K | 303.15 K | 308.15 K | 313.15 K | 318.15 K | 323.15 K
x2 = 0.03225 | 0.0479 | 0.0553 | 0.0644 | 0.0741 | 0.0853 | 0.0974 | 0.113 | 0.129 | 0.148 | 0.169
x2 = 0.06974 | 0.141 | 0.161 | 0.185 | 0.211 | 0.241 | 0.273 | 0.312 | 0.356 | 0.403 | 0.457
x2 = 0.1139 | 0.263 | 0.301 | 0.346 | 0.393 | 0.446 | 0.505 | 0.576 | 0.655 | 0.74 | 0.837
x2 = 0.1666 | 0.372 | 0.427 | 0.492 | 0.56 | 0.637 | 0.723 | 0.826 | 0.94 | 1.06 | 1.2
x2 = 0.2307 | 0.427 | 0.503 | 0.586 | 0.671 | 0.769 | 0.881 | 0.997 | 1.15 | 1.31 | 1.5
x2 = 0.3103 | 0.482 | 0.567 | 0.673 | 0.787 | 0.904 | 1.04 | 1.19 | 1.37 | 1.57 | 1.79
x2 = 0.4117 | 0.539 | 0.642 | 0.767 | 0.896 | 1.04 | 1.2 | 1.39 | 1.59 | 1.81 | 2.06
x2 = 0.5454 | 0.596 | 0.7 | 0.856 | 1.03 | 1.2 | 1.4 | 1.63 | 1.89 | 2.17 | 2.48
x2 = 0.7297 | 0.657 | 0.815 | 0.972 | 1.16 | 1.33 | 1.56 | 1.81 | 2.1 | 2.4 | 2.78

Nc1cccc2ccncc12 + CC(C)O + O
solubility (g/100 g solution)
Conditions | 278.15 K | 283.15 K | 288.15 K | 293.15 K | 298.15 K | 303.15 K | 308.15 K | 313.15 K | 318.15 K | 323.15 K
x2 = 0.03225 | 0.0706 | 0.0813 | 0.0925 | 0.109 | 0.123 | 0.142 | 0.165 | 0.191 | 0.218 | 0.252
x2 = 0.06974 | 0.141 | 0.163 | 0.184 | 0.215 | 0.244 | 0.279 | 0.323 | 0.372 | 0.424 | 0.489
x2 = 0.1139 | 0.235 | 0.271 | 0.306 | 0.357 | 0.405 | 0.463 | 0.534 | 0.617 | 0.702 | 0.808
x2 = 0.1666 | 0.339 | 0.393 | 0.445 | 0.519 | 0.59 | 0.676 | 0.78 | 0.902 | 1.03 | 1.18
x2 = 0.2307 | 0.393 | 0.466 | 0.559 | 0.658 | 0.767 | 0.883 | 1.02 | 1.18 | 1.36 | 1.58
x2 = 0.3103 | 0.5 | 0.587 | 0.696 | 0.819 | 0.952 | 1.09 | 1.26 | 1.47 | 1.68 | 1.95
x2 = 0.4117 | 0.573 | 0.687 | 0.826 | 0.98 | 1.13 | 1.3 | 1.5 | 1.75 | 2.02 | 2.35
x2 = 0.5454 | 0.633 | 0.765 | 0.915 | 1.08 | 1.25 | 1.46 | 1.7 | 1.97 | 2.3 | 2.69
x2 = 0.7297 | 0.576 | 0.73 | 0.906 | 1.1 | 1.31 | 1.58 | 1.84 | 2.16 | 2.51 | 2.94

Nc1cccc2ccncc12 + CCCO + O
solubility (g/100 g solution)
Conditions | 278.15 K | 283.15 K | 288.15 K | 293.15 K | 298.15 K | 303.15 K | 308.15 K | 313.15 K | 318.15 K | 323.15 K
x2 = 0.03225 | 0.0813 | 0.0931 | 0.106 | 0.124 | 0.14 | 0.162 | 0.187 | 0.216 | 0.247 | 0.285
x2 = 0.06974 | 0.175 | 0.199 | 0.226 | 0.263 | 0.297 | 0.341 | 0.393 | 0.45 | 0.513 | 0.589
x2 = 0.1139 | 0.299 | 0.34 | 0.385 | 0.448 | 0.506 | 0.58 | 0.668 | 0.764 | 0.87 | 0.997
x2 = 0.1666 | 0.433 | 0.493 | 0.56 | 0.652 | 0.739 | 0.848 | 0.978 | 1.12 | 1.27 | 1.46
x2 = 0.2307 | 0.521 | 0.606 | 0.711 | 0.84 | 0.964 | 1.11 | 1.28 | 1.47 | 1.69 | 1.94
x2 = 0.3103 | 0.618 | 0.731 | 0.862 | 1.01 | 1.16 | 1.33 | 1.55 | 1.78 | 2.06 | 2.38
x2 = 0.4117 | 0.686 | 0.822 | 0.992 | 1.18 | 1.36 | 1.59 | 1.84 | 2.12 | 2.44 | 2.82
x2 = 0.5454 | 0.774 | 0.916 | 1.11 | 1.32 | 1.53 | 1.78 | 2.08 | 2.41 | 2.78 | 3.21
x2 = 0.7297 | 0.791 | 0.959 | 1.16 | 1.39 | 1.64 | 1.92 | 2.24 | 2.6 | 3.03 | 3.54
